Data reported in patent US6992105B2, “Dipeptide derivatives” (Novartis AG, priority 2001, dated 2006).
Ends that are not written are not given here.

Tested on: angiotensin I induced pressor response (ACE)
Assay: inhibition of the angiotensin I induced pressor response in normotensive rats
Assay type: in vivo, rat
Details: 10 mg/kg i.v., conscious normotensive rats
Experimental: The in vivo test for i.v. administered compounds is performed with male, normotensive rats, which are conscious. A femoral artery and femoral vein are cannulated respectively for direct blood pressure measurement on i.v. administration of angiotensin I and i.v. or p.o. administration of a compound of this invention. After the basal blood pressure is stabilized, pressor responses to 3 or 4 challenges of 300 ng/kg angiotensin I i.v., at 15-minute intervals, are obtained. Such pressure responses are usually again obtained at 15, 30, 60 and 90 minutes, and then every hour up to 6 hours after i.v. or p.o. administration of the compound to be tested, and compared with the initial responses. Any observed decrease of said pressor response is an indication of ACE inhibition.

Molecule | duration of inhibition of the angiotensin I induced pressor response [h]
CC(C)[C@H](S)C(=O)NC(C)(C)C(=O)N[C@@H](COCc1ccccc1)C(=O)O [Example 6(a), N-[2-[(S)-2-Mercapto-3-methylbutanoylamino]-2-methylpropionyl]-O-benzyl-L-serine] | 3

Molecular target: rabbit antibodies that recognize specifically the carboxyl terminal tryptophan of ET-1
Assay: radioimmunoassay: displacement of [125I]ET-1 binding to anti-ET-1 antibodies
Details: mean±SEM, n=3–5
Experimental: Diluted samples (200 μL) obtained from the above enzyme assay are incubated at 4° C. overnight with 25 μL each of [^125I]ET-1 (10,000 cpm/tube) and 1:20,000-fold diluted rabbit antibodies that recognize specifically the carboxyl terminal tryptophan of ET-1. Goat anti-rabbit antibodies coupled to magnetic beads (70 μg) are then added to each tube, and the reaction mixture is further incubated for 30 minutes at room temperature. The beads are pelleted using a magnetic rack. The supernatant is decanted, and the radioactivity in the pellet is counted in a gamma counter. Total and nonspecific binding are measured in the absence of non-radioactive ET-1 and anti-ET antibodies, respectively.

IC50 for displacement of [125I]ET-1 binding to the antibodies | Molecule
21 ± 2 fmol | ET-1: endothelin-1, non-radioactive peptide formed from big ET-1 by ECE; standard in the RIA
260,000±66,000 fmol | big ET-1: human big ET-1, substrate of ECE-1 in the enzyme assay (CSCSSLMDKECVYFCHLDIIWVNTPEHVVPYGLGSPRS; ends and bridges not checked; cysteine pairing not given here; UniProt P05305 53-90, looked up)

Molecular target: T1, NEP (EC 3.4.24.11) (Rattus norvegicus, UniProt P07861)
T1 construct: protein (rat kidney cortex membranes prepared by method of Maeda et al., 1983); from tissue; host or cells: rat kidney cortex membranes
T1 sequence (P07861 1-750): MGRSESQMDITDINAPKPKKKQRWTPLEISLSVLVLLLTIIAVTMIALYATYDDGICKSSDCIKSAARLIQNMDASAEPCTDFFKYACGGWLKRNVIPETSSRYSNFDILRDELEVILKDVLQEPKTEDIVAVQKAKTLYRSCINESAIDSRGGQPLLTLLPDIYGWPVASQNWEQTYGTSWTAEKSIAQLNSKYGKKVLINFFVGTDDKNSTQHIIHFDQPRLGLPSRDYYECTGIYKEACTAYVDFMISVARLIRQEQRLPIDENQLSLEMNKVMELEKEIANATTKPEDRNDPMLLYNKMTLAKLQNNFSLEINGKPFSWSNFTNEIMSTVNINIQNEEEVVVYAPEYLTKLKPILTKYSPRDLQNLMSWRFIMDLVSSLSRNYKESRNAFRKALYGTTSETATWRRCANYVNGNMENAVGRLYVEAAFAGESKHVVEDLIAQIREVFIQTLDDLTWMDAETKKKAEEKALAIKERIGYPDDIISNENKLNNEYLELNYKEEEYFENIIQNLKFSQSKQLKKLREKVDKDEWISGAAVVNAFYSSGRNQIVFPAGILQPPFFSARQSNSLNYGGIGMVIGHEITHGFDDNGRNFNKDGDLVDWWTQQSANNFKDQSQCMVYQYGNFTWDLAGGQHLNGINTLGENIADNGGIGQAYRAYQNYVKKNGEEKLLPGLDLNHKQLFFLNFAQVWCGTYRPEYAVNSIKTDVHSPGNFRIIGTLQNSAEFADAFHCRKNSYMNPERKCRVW
Assay: in vitro inhibition of NEP (GAAP substrate, rat kidney cortex membranes)
Assay type: biochemical
Details: substrate glutaryl-Ala-Ala-Phe-2-naphthylamide (GAAP)
Experimental: The in vitro inhibition of NEP (EC 3.4.24.11) can be determined as follows:
NEP 3.4.24.11 activity is determined by the hydrolysis of the substrate glutaryl-Ala-Ala-Phe-2-naphthylamide (GAAP) using a modified procedure of Orlowski and Wilk (1981). The incubation mixture (total volume 125 μL) contains 4.2 μL of protein (rat kidney cortex membranes prepared by method of Maeda et al., 1983), 50 mM tris buffer, pH 7.4 at 25° C., 500 μM substrate (final concentration), and leucine aminopeptidase M (2.5 μg). The mixture is incubated for 10 minutes at 25° C., and 100 μL of fast garnet (250 μg fast garnet/mL of 10% Tween 20 in 1 M sodium acetate pH 4.2) is added. Enzyme activity is measure spectrophotometrically at […]. One unit of NEP 24.11 activity is defined as 1 nmol of 2-naphthylamine released per minute at 25° C. at pH 7.4. IC50 values are determined, i.e., the concentration of test compound required for 50% inhibition of the release of 2-naphthylamine.
NEP activity can also be determined using ANF as a substrate. ANF degrading activity is determined by measuring the disappearance of rat-ANF (r-ANF) using a 3-minute reverse phase-HPLC separation. An aliquot of the enzyme in 50 mM tris HCl buffer, pH 7.4, is pre-incubated at 37° C. for 2 minutes and the reaction is initiated by the addition of 4 nmol of r-ANF in a total volume of 50 μL. […]

IC50 [nM] | Molecule
~5 | CC(C)[C@H](S)C(=O)NC(C)(C)C(=O)N[C@@H](COCc1ccccc1)C(=O)O [Example 6(a), N-[2-[(S)-2-Mercapto-3-methylbutanoylamino]-2-methylpropionyl]-O-benzyl-L-serine]

Molecular target: angiotensin converting enzyme (ACE) (Homo sapiens, UniProt P12821)
Sequence (P12821 30-1306, species assumed): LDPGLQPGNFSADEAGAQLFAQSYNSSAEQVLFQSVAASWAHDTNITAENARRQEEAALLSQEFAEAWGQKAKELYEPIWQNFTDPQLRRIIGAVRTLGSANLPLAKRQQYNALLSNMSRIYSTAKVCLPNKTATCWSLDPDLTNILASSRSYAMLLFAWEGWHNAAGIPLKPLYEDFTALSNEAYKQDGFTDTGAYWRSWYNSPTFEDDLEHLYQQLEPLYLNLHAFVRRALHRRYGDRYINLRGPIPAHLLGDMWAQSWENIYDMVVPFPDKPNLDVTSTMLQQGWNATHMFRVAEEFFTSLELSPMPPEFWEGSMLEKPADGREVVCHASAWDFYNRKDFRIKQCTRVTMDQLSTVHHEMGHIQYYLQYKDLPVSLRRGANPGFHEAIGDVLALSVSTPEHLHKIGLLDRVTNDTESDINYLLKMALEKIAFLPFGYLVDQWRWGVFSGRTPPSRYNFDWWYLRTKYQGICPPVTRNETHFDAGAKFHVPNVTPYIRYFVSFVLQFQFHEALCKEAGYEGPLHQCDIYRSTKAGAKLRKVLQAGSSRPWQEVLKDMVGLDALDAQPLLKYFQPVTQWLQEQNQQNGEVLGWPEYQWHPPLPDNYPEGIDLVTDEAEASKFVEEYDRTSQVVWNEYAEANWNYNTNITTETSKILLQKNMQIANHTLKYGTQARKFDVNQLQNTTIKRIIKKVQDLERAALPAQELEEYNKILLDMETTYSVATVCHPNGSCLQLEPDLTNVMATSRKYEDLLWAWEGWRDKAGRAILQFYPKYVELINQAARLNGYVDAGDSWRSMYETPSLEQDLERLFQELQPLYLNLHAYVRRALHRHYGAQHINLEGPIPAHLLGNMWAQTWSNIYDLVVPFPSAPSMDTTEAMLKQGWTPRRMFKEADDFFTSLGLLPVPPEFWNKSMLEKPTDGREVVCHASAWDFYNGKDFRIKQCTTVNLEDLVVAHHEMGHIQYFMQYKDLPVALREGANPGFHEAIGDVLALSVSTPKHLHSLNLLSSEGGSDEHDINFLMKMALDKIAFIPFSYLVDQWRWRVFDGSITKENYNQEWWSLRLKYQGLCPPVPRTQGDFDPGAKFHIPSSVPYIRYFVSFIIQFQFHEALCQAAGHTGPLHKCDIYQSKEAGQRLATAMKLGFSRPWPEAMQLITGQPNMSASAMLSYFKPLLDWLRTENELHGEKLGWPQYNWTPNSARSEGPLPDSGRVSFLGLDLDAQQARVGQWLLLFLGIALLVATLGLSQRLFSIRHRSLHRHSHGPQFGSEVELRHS
Assay: in vitro inhibition of ACE (hippuryl-histidyl-leucine substrate)
Assay type: biochemical
Details: ACE in vitro assay
Experimental: In vitro testing is most appropriate for the free carboxylic acids of the invention. The test compound is dissolved in dimethyl sulfoxide, ethanol or 0.25 M sodium bicarbonate solution, and the solution is diluted with buffer to the desired concentration.
The buffer for the ACE assay is 300 mM NaCl, 100 mM KH2PO4 (pH 8.3). The reaction is initiated by the addition of 100 μL of hippuryl-histidyl-leucine (2 mg/mL) to tubes containing enzyme and drug in a volume of 150 μL and tubes are incubated for 30 minutes at 37° C. The reaction is terminated by the addition of 0.75 mL 0.6 N NaOH. 100 μL of freshly prepared O-pthaldehyde solution (2 mg/mL in methanol) is added to the tubes, the contents are mixed and allowed to stand at room temperature. After 10 minutes, 100 μL of 6 N HCl is added. The tubes are centrifuged and the supernatant optical density is read at 360 nm. The results are plotted against drug concentration to determine the IC50, i.e., the drug concentration which gives half the activity of the control sample containing no drug.

IC50 [nM] | Molecule
~20 | CC(C)[C@H](S)C(=O)NC(C)(C)C(=O)N[C@@H](COCc1ccccc1)C(=O)O [Example 6(a), N-[2-[(S)-2-Mercapto-3-methylbutanoylamino]-2-methylpropionyl]-O-benzyl-L-serine]

Tested on: not given
Assay: not given
Details: not given

Molecule | melting point [°C]
CCOC(=O)[C@@H](NC(=O)C(C)(C)NC(=O)[C@@H](SC(C)=O)C(C)C)[C@@H](C)OCc1ccccc1 [Example 1(c), N-[2-[(S)-2-acetylthio-3-methylbutanoylamino]-2-methylpropionyl]-O-benzyl-L-threonine ethyl ester] | 121 to 122
CCOC(=O)[C@H](COCc1ccccc1)NC(=O)C(C)(C)NC(=O)[C@@H](SC(=O)Cn1cncn1)C(C)C [Example 1(p), N-[2-[(S)-2-[(1-(1,2,4)-triazolyl)acetylthio]-3-methylbutanoylamino]-2-methylpropionyl]-O-benzyl-L-serine ethyl ester] | 106 to 107
CCOC(=O)[C@H](COCc1ccccc1)NC(=O)C(C)(C)NC(=O)[C@@H](SC(=O)CN1CCN(C)CC1)C(C)C [Example 1(q), N-[2-[(S)-2-[(4-methylpiperazino)acetylthio]-3-methylbutanoylamino]-2-methylpropionyl]-O-benzyl-L-serine ethyl ester] | 95 to 96
CC(C)[C@H](S)C(=O)NC1(C(=O)N[C@@H](COCc2ccccc2)C(=O)O)CCCC1 [Example 6(b), N-[1-[(S)-2-mercapto-3-methylbutanoylamino]-cyclopentanecarbonyl]-O-benzyl-L-serine] | 132 to 136

Next, values leading:

melting point [°C] | Molecule
81 to 87 | CC(C)[C@H](S)C(=O)NC(C)(C)C(=O)N[C@@H](CSCc1ccccc1)C(=O)O [Example 6(c), N-[2-[(S)-2-mercapto-3-methylbutanoylamino]-2-methylpropionyl]-S-benzyl-L-cysteine]
61 to 64 | CC(C)[C@H](S)C(=O)NC(C)(C)C(=O)N[C@H](C(=O)O)[C@@H](C)OCc1ccccc1 [Example 6(d), N-[2-[(S)-2-mercapto-3-methylbutanoylamino]-2-methylpropionyl]-O-benzyl-L-threonine]
128 to 130 | CC(C)(NC(=O)[C@@H](S)C(C)(C)C)C(=O)N[C@@H](COCc1ccccc1)C(=O)O [Example 6(e), N-[2-[(S)-2-mercapto-3,3-dimethylbutanoylamino]-2-methylpropionyl]-O-benzyl-L-serine]
50 to 54 | CC(C)[C@H](S)C(=O)NC(C)(C)C(=O)N[C@@H](COCc1ccc(F)cc1)C(=O)O [Example 6(f), N-[2-[(S)-2-mercapto-3-methylbutanoylamino]-2-methylpropionyl]-O-(4-fluorobenzyl)-L-serine]
127 to 128 | CC(C)[C@H](S)C(=O)NC(C)(C)C(=O)N[C@@H](CCOc1ccc(F)cc1)C(=O)O [Example 6(g), N-[2-[(S)-2-mercapto-3-methylbutanoylamino]-2-methylpropionyl]-O-(4-fluorophenyl)-L-homoserine]
50 to 56 | CC(C)[C@H](S)C(=O)NC(C)(C)C(=O)N[C@@H](CCOc1cccc(F)c1)C(=O)O [Example 6(h), N-[2-[(S)-2-mercapto-3-methylbutanoylamino]-2-methylpropionyl]-O-(3-fluorophenyl)-L-homoserine]
184 to 189 | CC(C)(NC(=O)[C@@H](S)C1CCOCC1)C(=O)N[C@@H](COCc1ccccc1)C(=O)O [Example 6(j), N-[2-[(S)-2-mercapto-2-(4-tetrahydropyranyl)acetylamino]-2-methylpropionyl]-O-benzyl-L-serine]
